The values below come from patent US20050054696A1, “Indole compounds and medicinal use thereof” (priority 2001, published 2005).

The test system of test [1] is db/db mice. In words: Measurement of plasma glucose concentration in obesity type diabetes model db/db mice. In kind it is in vivo. The settings on record: Mus musculus, po; plasma glucose 1 and 3 hr after administration, after fasting for 4 hr; significant difference vs solvent group (Dunnett's test); read-out: Minimum effective dose db/db mouse. On the procedure: Measurement Method of Plasma Glucose Concentration
Using obesity type diabetes model db/db mice, the effect of the compound (1) of the present invention on glucose concentration in plasma was examined. The glucose concentration in the plasma of db/db mice (10-15 weeks of age) was measured, and the mice were grouped into 5 mice per group such that the average glucose concentration of plasma is leveled. After fasting for 4 hr, the test drug or a solvent (0.5% methyl cellulose) was orally administered to db/db mice, and plasma glucose concentration at 1 and 3 hr after the administration was measured. The hypoglycemic effect of the test drug was evaluated by detecting a significant difference every hour between the solvent administration group and the test drug administration group (Dunnett's test).

Test [2] deals with T1, recombinant human liver glycogen phosphorylase (HLGPa) (Homo sapiens, UniProt P06737).
T1 construct: made in house; host or cells: Sf9 insect cells (unpurified cell lysate used as enzyme solution)
T1 sequence (P06737 1-847): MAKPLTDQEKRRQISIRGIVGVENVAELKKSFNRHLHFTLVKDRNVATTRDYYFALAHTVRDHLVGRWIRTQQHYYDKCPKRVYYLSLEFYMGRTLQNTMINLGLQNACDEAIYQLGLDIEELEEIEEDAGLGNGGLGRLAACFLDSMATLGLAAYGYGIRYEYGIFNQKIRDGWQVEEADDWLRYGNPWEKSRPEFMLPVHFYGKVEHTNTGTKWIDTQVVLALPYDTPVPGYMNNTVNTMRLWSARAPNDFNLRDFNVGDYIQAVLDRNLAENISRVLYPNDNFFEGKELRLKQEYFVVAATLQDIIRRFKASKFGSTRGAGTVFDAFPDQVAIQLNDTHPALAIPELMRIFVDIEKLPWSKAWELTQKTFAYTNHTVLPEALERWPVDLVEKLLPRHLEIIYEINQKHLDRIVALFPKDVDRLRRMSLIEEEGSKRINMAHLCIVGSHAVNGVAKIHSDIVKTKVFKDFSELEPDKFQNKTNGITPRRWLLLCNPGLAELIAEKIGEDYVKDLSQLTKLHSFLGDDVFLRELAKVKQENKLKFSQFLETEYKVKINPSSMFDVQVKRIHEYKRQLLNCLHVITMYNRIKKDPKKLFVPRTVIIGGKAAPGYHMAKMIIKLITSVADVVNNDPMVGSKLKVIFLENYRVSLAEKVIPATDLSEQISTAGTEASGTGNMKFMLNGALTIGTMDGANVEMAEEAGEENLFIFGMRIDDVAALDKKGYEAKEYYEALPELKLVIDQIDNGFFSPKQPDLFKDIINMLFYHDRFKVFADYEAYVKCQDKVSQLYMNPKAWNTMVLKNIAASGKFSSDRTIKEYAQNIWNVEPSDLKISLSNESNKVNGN
In words: Measurement of liver glycogen phosphorylase activity (enzyme inhibitory activity against HLGPa). In kind it is biochemical. The settings on record: Sf9 cell lysate expressing recombinant enzyme; reverse reaction (glycogen synthesis from G1-P), phosphate by malachite green, 60 min room temperature. The method, boiled down: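 Activity was run in the reverse, glycogen-synthesis direction, using Sf9 lysate expressing recombinant human liver glycogen phosphorylase (enzyme solution 80 μg/mL protein, pH 7.0). Substrate solution was Tris pH 7.2 with 1.25 mM glucose-1-phosphate, 2.5 mg/ml glycogen and 7.5 mM glucose, reacted 60 min at room temperature. Released phosphate was measured by malachite green A650, with % inhibition taken against DMSO control and no-enzyme blank.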

Broadly, the IC50 is the concentration needed to halve the response being measured. Turning to `Cc1ccc2[nH]c(C(=O)Nn3c(=O)[nH]c4cc(F)ccc4c3=O)cc2c1` [Example 2-24, 5-methyl-1H-indole-2-carboxylic acid (7-fluoro-1,2,3,4-tetrahydro-2,4-dioxoquinazolin-3-yl)amide], the minimal effective dose in test [1] stood at 3 mg/kg. For the same molecule, the IC50 in test [2] is 17 nM.

For the molecule `O=C(NN1C(=O)CCNC1=O)c1cc2cc(Cl)ccc2[nH]1` [Example 3, N-(2,4-dioxo-perhydropyrimidin-3-yl)-5-chloro-1H-indole-2-carboxamide], in test [1], the minimal effective dose was determined as 10 mg/kg. Also, the IC50 in test [2] was over 100 nM.

For the molecule `Cl.N=C(NNC(=O)c1cc2cc(Cl)ccc2[nH]1)c1ccccc1F` [Example 6-19, 5-chloro-1H-indole-2-carboxylic acid 2-((2-fluorophenyl)-imino-methyl)hydrazide hydrochloride], the minimal effective dose in test [1] stood at 3 mg/kg. Moreover, the IC50 in test [2] was 53 nM.

For `O=C(NN1C(=O)N[C@H](c2ccccc2)C1=O)c1cc2cc(Cl)ccc2[nH]1` [Example 4-6, 5-chloro-1H-indole-2-carboxylic acid ((4R)-2,5-dioxo-4-phenylimidazolidin-1-yl)amide], in test [1], the minimal effective dose turned out to be 10 mg/kg. Further, in test [2], the IC50 turned out to be 65 nM.

For the molecule `Cc1ccc2[nH]c(C(=O)Nn3c(=O)[nH]c4ccccc4c3=O)cc2c1` [Example 2-23, 5-methyl-1H-indole-2-carboxylic acid (1,2,3,4-tetrahydro-2,4-dioxoquinazolin-3-yl)amide], the minimal effective dose in test [1] is 3 mg/kg. Further, in test [2], the IC50 came to 24 nM.

As to `N=C(NNC(=O)c1cc2cc(Cl)ccc2[nH]1)c1ccccc1Cl.O=C(O)/C=C\C(=O)O` [Example 6-18, 5-chloro-1H-indole-2-carboxylic acid 2-((2-chlorophenyl)-imino-methyl)hydrazide butenedioic acid salt], in test [1], the minimal effective dose is 3 mg/kg. In test [2], the IC50 came to 49 nM.

Regarding `Cc1cccc(C(=N)NNC(=O)c2cc3cc(Cl)ccc3[nH]2)c1` [Example 1-134, 5-chloro-1H-indole-2-carboxylic acid 2-(imino-(m-tolyl)-methyl)hydrazide], the minimal effective dose in test [1] came out at 10 mg/kg. In test [2], the IC50 was found to be 40 nM.

In the case of `COc1ccc([C@@H]2NC(=O)N(NC(=O)c3cc4cc(Cl)ccc4[nH]3)C2=O)cc1` [Example 4-19, 5-chloro-1H-indole-2-carboxylic acid ((4S)-2,5-dioxo-4-(4-methoxyphenyl)imidazolidin-1-yl)amide], the minimal effective dose in test [1] is 10 mg/kg. Also, in test [2], the IC50 was 96 nM.

Regarding `Nc1ccccc1C(=O)NNC(=O)c1cc2cc(Cl)ccc2[nH]1` [Example 1-2, 2-Aminobenzoic acid 2-(5-chloro-1H-indole-2-carbonyl)hydrazide], the minimal effective dose in test [1] was determined as 10 mg/kg. Moreover, the IC50 in test [2] was determined as 13 nM.

Turning to `Cl.N=C(NNC(=O)c1cc2cc(Cl)ccc2[nH]1)c1ccccc1` [Example 6, 5-chloro-1H-indole-2-carboxylic acid 2-(imino-phenyl-methyl)hydrazide hydrochloride], the minimal effective dose in test [1] was found to be 3 mg/kg. Also, in test [2], the IC50 was determined as 62 nM.

As to `O=C(Nn1c(=O)[nH]c2cccc(Cl)c2c1=O)c1cc2cc(Cl)ccc2[nH]1` [Example 2-17, 5-chloro-1H-indole-2-carboxylic acid (5-chloro-1,2,3,4-tetrahydro-2,4-dioxoquinazolin-3-yl)amide], in test [1], the minimal effective dose was 10 mg/kg. For the same molecule, the IC50 in test [2] worked out at 37 nM.

As to `CS(=O)(=O)O.N=C(NNC(=O)c1cc2cc(Cl)ccc2[nH]1)c1ccccc1F` [Example 6-20, 5-chloro-1H-indole-2-carboxylic acid 2-((2-fluorophenyl)-imino-methyl)hydrazide methanesulfonate], in test [1], the minimal effective dose is 3 mg/kg. The IC50 in test [2] was found to be 110 nM.

With `Cc1ccc(C(=O)NNC(=O)c2cc3cc(Cl)ccc3[nH]2)s1` [Example 1-88, 5-methylthiophene-2-carboxylic acid 2-(5-chloro-1H-indole-2-carbonyl)hydrazide], in test [1], the minimal effective dose worked out at 10 mg/kg. For the same molecule, the IC50 in test [2] was 20 nM.

For the molecule `O=C(NNC(=O)c1cc2cc(Cl)ccc2[nH]1)c1c[nH]cn1` [Example 1-81, 1H-imidazole-4-carboxylic acid 2-(5-chloro-1H-indole-2-carbonyl)hydrazide], the minimal effective dose in test [1] is 10 mg/kg. Moreover, the IC50 in test [2] amounted to 28 nM.
